Tests used:
[1] = xn = mol fraction of the nth substance listed; details: 298.15 K, 101.3 kPa, Liquid
[2] = heat capacity at constant pressure per volume; xn = mol fraction of the nth substance listed; details: 298.15 K, 101.3 kPa, Liquid, Flow calorimetry
[3] = 298.15 K; 101.33 kPa; Liquid
[4] = molar heat capacity at constant pressure; details: 298.15 K; 101.33 kPa; Liquid; Flow calorimetry

CC(C)(C)CO [2,2-dimethyl-1-propanol] + O
Details	heat capacity, [2] [J/K/m3]	mass density, [1] [kg/m3]
x1 = 0.001702	4176200	995.77
x1 = 0.002268	4178900	995.36
x1 = 0.002665	4181000	995.08
x1 = 0.003113	4183100	994.74
x1 = 0.003563	4185300	994.42
x1 = 0.004331	4189100	993.87
x1 = 0.004832	4191800	993.52

CCC(C)CO (stereo not given) [2-methyl-1-butanol]
Details	mass density [kg/m3]	molar heat capacity at constant pressure [J/K/mol]
[3]	814.54	–
[4]	–	215

CCC(C)CO (stereo not given) [2-methyl-1-butanol] + O
Details	heat capacity, [2] [J/K/m3]	mass density, [1] [kg/m3]
x1 = 0.000842	4172700	996.43
x1 = 0.000975	4173400	996.33
x1 = 0.001072	4174000	996.28
x1 = 0.001376	4175300	996.04
x1 = 0.001398	4175600	996.04
x1 = 0.00154	4176300	995.95
x1 = 0.002056	4179200	995.56
x1 = 0.002325	4180700	995.4
x1 = 0.002361	4180800	995.38
x1 = 0.002467	4181400	995.28
x1 = 0.002771	4182700	995.09
x1 = 0.002868	4183400	995.02
x1 = 0.002988	4184000	994.91
x1 = 0.003068	4184200	994.84
x1 = 0.003107	4184500	994.81
x1 = 0.003446	4186500	994.6

CC(C)CO [2-methyl-1-propanol]
Details	mass density [kg/m3]	molar heat capacity at constant pressure [J/K/mol]
[3]	797.63	–
[4]	–	181.9

CC(C)CO [2-methyl-1-propanol] + O
Details	heat capacity, [2] [J/K/m3]	mass density, [1] [kg/m3]
x1 = 0.001575	4175200	995.99
x1 = 0.00181	4176000	995.84
x1 = 0.003631	4184200	994.66
x1 = 0.006044	4195700	993.15
x1 = 0.009083	4209900	991.35
x1 = 0.01143	4220800	989.99
x1 = 0.01647	4247000	987.23

CCC(C)(C)O [2-methylbutan-2-ol]
Details	mass density [kg/m3]	molar heat capacity at constant pressure [J/K/mol]
[3]	804.01	–
[4]	–	251.1

CCC(C)(C)O [2-methylbutan-2-ol] + O
Details	heat capacity, [2] [J/K/m3]	mass density, [1] [kg/m3]
x1 = 0.00166	4180000	995.9
x1 = 0.001774	4181000	995.84
x1 = 0.002795	4188600	995.15
x1 = 0.005273	4207000	993.56
x1 = 0.006999	4220500	992.51
x1 = 0.009307	4239300	991.15
x1 = 0.01213	4263400	989.63
x1 = 0.01355	4275900	988.89

CC(C)(C)O [2-methylpropan-2-ol] + O
Details	heat capacity, [2] [J/K/m3]	mass density, [1] [kg/m3]
x1 = 0.000883	4173400	996.41
x1 = 0.001796	4178600	995.74
x1 = 0.002923	4185200	994.98
x1 = 0.004051	4192000	994.22
x1 = 0.006409	4206500	992.64
x1 = 0.00867	4220900	991.22
x1 = 0.01153	4239100	989.43
x1 = 0.01716	4276400	986.35

CC(C)C(C)O (stereo not given) [3-methyl-2-butanol]
Details	mass density [kg/m3]	molar heat capacity at constant pressure [J/K/mol]
[3]	812.31	–
[4]	–	249.5

CC(C)C(C)O (stereo not given) [3-methyl-2-butanol] + O
Details	heat capacity, [2] [J/K/m3]	mass density, [1] [kg/m3]
x1 = 0.000786	4172900	996.49
x1 = 0.001489	4177000	996.01
x1 = 0.001981	4180000	995.68
x1 = 0.004452	4194900	994.09
x1 = 0.005029	4198500	993.72
x1 = 0.006358	4206900	992.91
x1 = 0.007481	4213800	992.25
x1 = 0.008252	4218900	991.83

CC(C)CCO [3-methylbutan-1-ol]
Details	mass density [kg/m3]	molar heat capacity at constant pressure [J/K/mol]
[3]	804.18	–
[4]	–	209.3

CC(C)CCO [3-methylbutan-1-ol] + O
Details	heat capacity, [2] [J/K/m3]	mass density, [1] [kg/m3]
x1 = 0.000488	4170700	996.67
x1 = 0.000691	4171700	996.51
x1 = 0.001002	4173400	996.29
x1 = 0.001048	4173600	996.22
x1 = 0.00119	4174300	996.13
x1 = 0.001204	4174400	996.13
x1 = 0.001362	4175200	995.99
x1 = 0.001742	4177100	995.68
x1 = 0.002039	4178600	995.47
x1 = 0.002063	4178800	995.45
x1 = 0.002225	4179800	995.36
